# Measured values as given in article PMC10385664, “Projection of Target Drug Particle Size in Oral Formulations Using the Refined Developability Classification System (rDCS)” (Pharmaceutics, 2023).
# Several values for one entry are separate records, joined by “and”; a condition that tells them apart may be missing. Equal values may be shown once.
# Legend:
# [1] = Conversion of Caco-2 Papp(A⟹B) to effective human permeability (Simcyp Papp–Peff correlation); settings: for estimated/predicted human Peff: estimated from Caco-2 permeability data; for Estimated human Peff: from Papp(A⟹B) without inhibitor, atenolol and propranolol as calibrators
# Description: The Caco-2 Papp values were averaged. […] Estimated Peff values were used as input for the rDCS and rtarget calculations. […]
# μM) to study transporter‐mediated efflux effects. In those experiments, elacridar was included in both compartments during the equilibration time and assay. The starting concentration (C0) was confirmed by […]
# Details of the analytical standard method are presented in Ta ble S8. Measurements were performed in duplicate and reference […]
# Papp values were averaged. To […]
# permeability was monitored during the experiment using fluorimetric analysis. The pre‐defined lucifer […]
# The built‐in literature Papp‐Peff […]
# propranolol as calibrator substances was used. Estimated Peff values were used as input for the rDCS and rtarget calculations.
# Table S8. Details of the LC‐MS/MS method for quantification of API concentrations in Caco‐2 permeability study […]
# Acquity™ HSS T3 (1.8 μm) 2.1 x 30 mm (Waters Ltd, Herts, UK) fitted with Column SecurityGuard™ ULTRA Fully Porous Polar C18 cartridge (Phenomenex, […]
# Mobile phase A 10 mM ammonium formate + 0.1 % v/v formic acid in water
# Mobile phase B 100% Methanol
# Gradient time profile 0.60 5 95
# [2] = Disk intrinsic dissolution rate in FaSSIF V1 (µDISS Profiler); format: physicochemical; settings: FaSSIF V1, 37 °C, 100 rpm
# Description: The experimental design was adapted from a standard experimental protocol published previously. Disks (n = 3) with a surface area of 0.0707 cm^2 were prepared by compressing the APIs into disk dies. For this, 5 to 10 mg of the API was compressed for 1 min at 50 bar using a Mini-IDR Tablet Compression System (Heath Scientific Co. Ltd., Milton Keynes, UK). Loose powder on the disk surface or die was removed with compressed air. […] With the disk surface facing upwards, the dies were placed into round-shaped magnetic stirrers and transferred into 20 mL assay vials. The vials were placed in a heating block and pre-heated FaSSIF V1 (10 mL) was added to each vial to start the dissolution experiments. The disks were rotated at 100 rpm and concentrations were measured in situ with UV-spectroscopy using fiber optic dip probes. Experiments were performed in triplicate.
# S.2.6. rDCS Customized Investigations: Intrinsic dissolution rate
# The concentration‐time curves for IDR determination were recorded with in situ UV‐spectroscopy using fiber optic dip probes. […] The buffer was stirred at 100 rpm and spectra were recorded approximately 1 minut e after addition of the stock solution. […]
# Second derivatives of the UV spectra were used to establish the calibration curves. Multiple wavelength ranges were evaluated, and calibration curves were accepted for further investigation when linear […]
# [3] = cited from earlier work
# [4] = pKa by Fast UV spectrometric titration (SiriusT3); format: physicochemical; settings: water/methanol mixtures; Yasuda–Shedlovsky extrapolation from water/methanol titrations, 25 °C; low absorbance, value to be treated with caution
# Source text: A high-throughput spectrometric screening assay (Fast UV method) using the SiriusT3 (Pion Inc., Billerica, MA, USA) was applied. Samples were titrated under varying water/methanol ratios and apparent pKa values were extrapolated using the Yasuda–Shedlovsky extrapolation. The experimental details are provided in Supplementary Materials. Measured pKa values are presented as means (±SD) and were compared to literature values as well as in silico predictions using the software ADMET Predictor version 9 (Simulations Plus Inc., Lancaster, CA, USA) and ACD/Labs Release 2021.1.2 (Advanced Chemistry Development Inc., Toronto, ON, Canada). […]
# r0 2 ∙ ρ ∙IDR∙Dose ൌ DF ∙ PefRsi ∙mdissolved (r0 < 30 μm, hparticle = r0) (S39) […]
# spectrometric screening assay (Fast UV method) using an automated titrator system with an incorporated UV‐Vis spectrometer (SiriusT3, Pion Inc., Billerica, MA, USA). […] The pKa values were determined from three titrations with different water/methanol ratios and extrapolation of apparent pKa values in the presence of co‐solvents using the Yasuda‐Shedlovsky extrapolation. Measured pKa values are presented as means with standard deviation and were compared to literature va lues and predictions using the software ADMET Predictor
SMILES,estimated/predicted human Peff [1],Estimated human Peff [1],IDR FaSSIF V1 (disk dissolution method) [2],solubility at pH 1.0 [3],pKa [4]
"CCn1c(=O)c2c(nc(/C=C/c3ccc(OC)c(OC)c3)n2C)n(CC)c1=O [Istradefylline, istradefylline]",4.66 ×10⁻⁶ cm/s,466 ×10⁻⁶ cm/s,–,–,–
"Cc1ncc(OC[C@@]2(c3cccc(F)c3)C[C@H]2C(=O)Nc2ccc(F)cn2)c(C)n1 [Lemborexant, lemborexant]",4.2 ×10⁻⁶ cm/s,420 ×10⁻⁶ cm/s,1.99 ± 0.09 µg/min/cm^2 and 1.99 ± 0.09 ^2 µg/min/cm^2,1.6 mg/mL,2.18 ± 0.05
"C[C@@H](c1ncncc1F)[C@](O)(Cn1cncn1)c1ccc(F)cc1F [Voriconazole, voriconazole]",–,–,84.8 ± 1.4 µg/min/cm^2 and 84.8 ± 1.4 ^2 µg/min/cm^2,–,–
